Measured values published in US20040171073A1, “Compounds for modulation of cholesterol transport” (Massachusetts Institute of Technology, priority 2002, published 2004).
“Also recorded” adds a separate entry of the source.

How the values were obtained:
[1] = target: T1, murine SR-BI (Mus musculus, UniProt Q61009); experiment: Efflux of [3H]cholesterol from ldlA[mSR-BI] cells to HDL; format: cell-based; conditions: for EC50: inhibition of efflux to HDL, mean ± SD, n=3
T1 construct: expressed in transfected cells; host or cells: ldlA-7 (LDL receptor deficient Chinese hamster ovary cells)
T1 sequence (Q61009 1-509): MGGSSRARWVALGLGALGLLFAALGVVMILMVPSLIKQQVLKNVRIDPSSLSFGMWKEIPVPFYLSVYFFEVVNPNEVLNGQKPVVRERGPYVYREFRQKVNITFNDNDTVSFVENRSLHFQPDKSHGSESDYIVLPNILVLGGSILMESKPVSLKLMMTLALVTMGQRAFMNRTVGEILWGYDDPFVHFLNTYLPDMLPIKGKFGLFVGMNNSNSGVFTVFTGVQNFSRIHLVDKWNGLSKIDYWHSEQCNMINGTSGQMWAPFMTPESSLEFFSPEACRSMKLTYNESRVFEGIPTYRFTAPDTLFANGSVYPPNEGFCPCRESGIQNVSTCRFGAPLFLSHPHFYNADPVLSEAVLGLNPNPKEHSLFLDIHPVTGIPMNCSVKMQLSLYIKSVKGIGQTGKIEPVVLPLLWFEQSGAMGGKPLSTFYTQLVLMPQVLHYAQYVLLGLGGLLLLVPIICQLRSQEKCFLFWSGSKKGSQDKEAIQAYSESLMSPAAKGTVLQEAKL
Method: (§1) Cells were pre-incubated with BLTs for 1 hr (or 2.5 hrs for transferrin, EGF and cholera toxin uptake experiments) and all the experiments were performed at 37° C. Detailed characterization of the BLTs and their effects was performed with compounds whose identities and purities were confirmed by LC-MS.
(§2) Assays for the uptake of lipids from DiI-HDL and [^3]CE-HDL, efflux of [^3H]cholesterol from labeled cells, and ^125I-HDL binding were performed as described by Acton et al. Science (1996) January 26;271(5248):518-20; Gu, et al. J Biol. Chem. (2000) September 29;275(39):29993-30001; and Ji, et al., J. Biol. Chem. (1997) 272, 20982-5. In some experiments, values were normalized so that the 100% of control represents activity in the absence of compounds and 0% represents activity determined in the presence of a 40-fold excess of unlabeled HDL or, for Y1-BS1 cells, in the presence of a 1:500 dilution of the KKB-1 blocking antibody (Gu, et al., 2000, generous gift from Karen Kozarsky). The amounts of cell-associated [^3H]cholesteryl ether are expressed as the equivalent amount of [^3H]CE-HDL protein (ng) to permit direct comparison of the relative amounts of ^125I-HDL binding and [^3H]CE uptake.
In addition to mediating selective lipid uptake from HDL, SR-BI can facilitate the efflux of unesterified cholesterol from cells to HDL particles (Jian, et al. (1998) J Biol Chem 273, 5599-606. Ji, et al. (1997) J. Biol. Chem. 272, 20982-5). To determine if the BLTs could inhibit this SR-BI-mediated lipid transport activity, cells were labeled with [^3H]cholesterol and its efflux to unlabeled HDL measured in the presence or absence of the BLTs. (FIG. 2C, table II). Cells were incubated for 3 hrs in the absence (top panels) or presence (bottom panels) of 50 micromolar BLT-1 (MIT 9952-53) and epifluorescence light microscopy was used to monitor the following cellular activities: clathrin-dependent endocytosis of fluorescently labeled transferrin (A,B; HeLa cells) and EGF (C,D; HeLa cells); clathrin-independent endocytosis of fluorescently labeled cholera toxin (E, F; BSC-1 cells), and transport of the temperature sensitive fluorescent membrane protein VSVG^ts045-EGFP from the ER to the cell surface (G,H; BSC-1 cells). In addition, the intracellular distributions of the actin cytoskeleton (visualized with rhodamine labeled phalloidin, I,J; ldlA-[mSRBI] cells) and the tubulin network (visualized with fluorescently labeled antibodies specific to y-tubulin, K,L; BSC-1 cells) were determined. BLT-1 (MIT 9952-53) and the other BLTs (not shown) had no effects on any of these cellular properties or activities.

[2] = target: T1, murine SR-BI; experiment: Rate of 125I-HDL dissociation from cells; conditions: dissociation of 125I-HDL from ldlA[mSR-BI] cells in presence of BLT; no BLT control 0.11; n=2; read-out: (B) Binding Parameters Koff (converted)
Method: The rates of HDL dissociation from cells were determined by incubation of the cells with ^125I-HDL (10 μg protein/ml, 2 hrs, 37° C.) with and without BLTs. The medium was then either replaced with the same medium in which the ^125I-HDL was substituted by a 40-fold excess of unlabeled HDL or a 40-fold excess of unlabeled HDL was added to the labeled incubation medium. The amounts of cell-associated ^125I-HDL were then determined as a function of time. The two methods gave similar results.

[3] = target: T1, murine SR-BI; experiment: Uptake of [3H]cholesteryl ether from [3H]CE-HDL by ldlA[mSR-BI] cells; format: cell-based; conditions: for EC50: inhibition, mean ± SD, n=6 (n=5 where footnoted), read-out: (A) EC50 [^3H]CEt HDL uptake
Method: as §1, §2

[4] = target: T1, murine SR-BI; experiment: Uptake of DiI from DiI-HDL by ldlA[mSR-BI] cells (high throughput screen and concentration dependence); format: cell-based; conditions: for EC50: inhibition, mean ± SD, n=3
[5] = target: T2, SR-BI (Mus musculus, UniProt Q61009); experiment: Uptake of [3H]CE from [3H]CE-HDL by Y1-BS1 adrenocortical cells; format: cell-based, murine; conditions: inhibition, n=2, read-out: (A) EC50 [^3H]CEt HDL uptake (Y1-BS1 cells)
T2 construct: endogenous in cells; host or cells: Y1-BS1 murine adrenocortical cells (ACTH induced)
T2 sequence (Q61009 1-509): T1 sequence (Q61009 1-509)
From the text: Biol. Chem. 273, 26338-48; Gu, et al. (2000) J. Biol. Chem. 275, 29993-30001; Acton, et al. (1994) J. Biol. Chem. 269, 21003-9; Pitas, et al. (1981) Arteriosclerosis 1, 177-85). LDL receptor deficient Chinese hamster ovary cells that express low levels of endogenous SR-BI, ldlA-7 (Kingsley, et al. (1984) Proc. Nat. Acad. Sci. USA 81, 5454-8), ldlA-7 cells stably transfected to express high levels of murine SR-BI (ldlA[mSR-BI])(Acton, et al., 1996), Y1-BS1 murine adrenocortical cells that express high levels of SR-BI after induction with ACTH (Rigotti, et al. (1996) J. Biol. Chem. 271, 33545-9), monkey kidney BS-C1 cells (Kapoor, et al. (2000) Journal of Cell Biology 150, 975-88) and HeLa cells (Temel, et al. (2002) J Biol Chem 8, 8) were maintained as previously described.
as §1, §2

[6] = target: T1, murine SR-BI; experiment: 125I-HDL binding to ldlA[mSR-BI] cells; conditions: for (B) Binding Parameters Bmax: 125I-HDL binding sites in presence of BLT at its ICCE95, no BLT control 100.0 ± 18.4; for Effect on HDL binding to SR-BI / EC50: ldlA[mSR-BI] cells; for EC50: enhancement of HDL binding, 10 μg protein/ml HDL, mean ± SD, n=3, read-out: (A) EC50 ^1nI-HDL binding
Method: as §1, §2
It was initially expected that the BLTs would function by inhibiting HDL binding to SR-BI. However, when cells were incubated with a sub-saturating concentration of either [^3H]CE-HDL or ^125I-labeled HDL (^125I-HDL) (10 μg protein/ml) and increasing amounts of compound (FIG. 5), the decreases in [^3H]CE uptake (solid lines, no symbols, data from FIG. 2B) and [3H]cholesterol efflux (dashed lines, data from FIG. 2C) were accompanied by corresponding increases in ^125I-HDL binding (solid lines, square symbols). The concentration dependence of ^125I-HDL binding was determined in the presence or absence of BLTs at their ICCE95 concentrations (FIG. 6 and Table II).

[7] = system: BSC-1 cells; format: cell-based, monkey
[8] = system: BSC-1 cells; format: cell-based, monkey; conditions: BLTs at ICCE95, 50 micromolar BLT-1, 3 hrs
[9] = system: HeLa cells; experiment: Receptor mediated endocytosis of labeled transferrin and EGF, fluorescence microscopy; format: cell-based; conditions: BLTs at ICCE95, 50 micromolar BLT-1, 3 hrs
[10] = system: ldlA[mSR-BI] cells; experiment: Distribution of actin and tubulin networks, fluorescence microscopy; format: cell-based, Chinese hamster; conditions: BLTs at ICCE95; 50 micromolar BLT-1, 3 hrs
[11] = DiI uptake from DiI-HDL, compounds at nominal 10 micromolar, ldlA[mSR-BI] cells

Row | SMILES | ICFC50 for efflux compared with that for uptake [1] | EC50 [1] | koff [2] | ICCE95 concentration (inhibits [3H]CE uptake by 95%) [3] | EC50 [3] | EC50 ([4]; ldlA[mSR-BI] cells) | EC50 [5] | (B) Binding Parameters Bmax [6] | Effect on HDL binding to SR-BI [6] | EC50 [6] | Secretory pathway: transport of VSVGts045-EGFP from ER to cell surface [7] | ENDOHDL Test 1 [4] | ENDOHDL Test 2 [4] | Inhibition of SR-BI-mediated lipid transport / DiI uptake, concentration range in words ([4]; ldlA[mSR-BI] cells, listed as BLT-1) | Uptake of labeled cholera toxin (clathrin-independent endocytosis) [8] | Uptake and intracellular distribution of labeled transferrin and EGF (clathrin-dependent endocytosis) [9] | Integrity/distribution of actin and tubulin networks [10] | Inhibition of SR-BI-mediated lipid transport / DiI uptake, concentration range in words ([4]; ldlA[mSR-BI] cells) | ENDOHDL Test 1 [4, 11] | ENDOHDL Test 2 [4, 11]
1 | c1ccc(-c2noc(-c3ccccc3)c3cccc2-3)cc1 [MIT 9952-19] | higher | 17200 ± 4000 nM | 0.00133 s⁻¹ | 50 µM | 2300 ± 1500 nM | 510 ± 150 nM | 1700 nM | 85.8 ± 15.8% | enhanced | 46500 ± 49300 nM | – | – | – | – | – | – | – | – | – | –
2 | CCCCCCC1CCC/C1=N\NC(N)=S (centres unmarked) [MIT 9952-53] | – | 150 ± 90 nM | 0.001 s⁻¹ | 1 µM | 110 ± 80 nM | 60 ± 40 nM | 380 nM | 95.8 ± 10.1% | enhanced | 88 ± 50 nM | no effects | 0.53 | 0.46 | low nanomolar concentration range; also recorded: inhibited in the nanomolar range | no effects | no effects | no effects | – | – | –
3 | COc1ccccc1NC(=O)Nc1ccc2ccccc2c1 [MIT 9952-29] | higher | 54900 ± 35200 nM | 0.00137 s⁻¹ | 50 µM | 3900 nM | 2000 ± 1000 nM | 4400 nM | 79.9 ± 15.9% | enhanced | 24900 ± 14800 nM | – | – | – | – | – | – | – | – | – | –
4 | CCCCOCCC1CCC/C1=N\NC(N)=S (centres unmarked) [MIT 9952-61] | – | 470 ± 230 nM | 0.00103 s⁻¹ | 1 µM | 240 ± 100 nM | 350 ± 180 nM | 410 nM | 93.0 ± 20.5% | enhanced | 250 ± 130 nM | – | 0.7 | 0.57 | – | – | – | – | inhibited in the nanomolar range | – | –
5 | C/C(=N\NC(=O)c1ccccc1I)c1ccc(N)cc1 [MIT 9952-6] | higher | 75300 ± 40100 nM | 0.00132 s⁻¹ | 50 µM | 13800 nM | 7100 ± 3700 nM | 8000 nM | 92.1 ± 36.8% | enhanced | 18000 ± 3700 nM | – | 0.52 | 0.54 | – | – | – | – | – | – | –
6 | Cc1ccc2c(c1)/C(=C/c1ccc([N+](=O)[O-])cc1)c1cccnc1-2 [MIT 9952-246] | – | – | – | – | – | – | – | – | – | – | – | 0.56 | 0.52 | – | – | – | – | – | – | –
7 | O=C(CSC1=NCCN1)Nc1ccccc1 [MIT 9952-314] | – | – | – | – | – | – | – | – | – | – | – | – | – | – | – | – | – | – | 0.55 | 0.54
8 | Cc1cc(C)c(NC(=O)C2CCCN2N)c(C)c1 (centres unmarked) [MIT 9952-276] | – | – | – | – | – | – | – | – | – | – | – | 0.73 | 0.68 | – | – | – | – | – | – | –
9 | O=C(Nc1ccc(Oc2ccc(Cl)c3cccnc23)c(Cl)c1)c1ccc([N+](=O)[O-])cc1 [MIT 9952-172] | – | – | – | – | – | – | – | – | – | – | – | 0.55 | 0.56 | – | – | – | – | – | – | –
